Source: patent US10059968B2, “Method for increasing lipid content in microorganisms and modified microorganisms therefrom” (Reliance […], priority 2014, dated 2018)

System: Chlamydomonas reinhardtii CW-15 cells
Assay: Nile Red Assay of lipid content in cells grown with cycloheximide
Assay type: cell-based
Procedure: FIG. 4A illustrates the graphical representation of fluorescence observed for Chlamydomonas reinhardtii CW-15 cells (Day 4) in Tris Acetate Phosphate medium grown with and without cycloheximide using Nile Red Assay;
Chemical inhibition of protein synthesis is carried out using cycloheximide. Chlamydomonas reinhardtii CW-15 (Chlamydomonas Resource Center, USA), is grown in the presence of varying amounts of cycloheximide (50 μM to 500 μM) to find out the effect of inhibition of protein synthesis on lipid content. […] FIGS. 4B and 4C depict the Nile Red stained cells of Chlamydomonas reinhardtii CW-15 cells grown without the protein inhibitor and in the presence of the protein inhibitor, respectively.

**Q.** Which results are given for `C[C@@H]1C[C@@H]([C@H](O)CC2CC(=O)NC(=O)C2)C(=O)[C@@H](C)C1` [cycloheximide]?
**A.** lipid content (Nile Red fluorescence) (Chlamydomonas reinhardtii CW-15 grown with cycloheximide 50 μM to 500 μM vs without, Day 4, Tris Acetate Phosphate medium): increase in lipid content; lipid content (Nile Red fluorescence) (cells grown in the presence of 50 μM of cycloheximide): Highest lipid content; lipid content (Nile Red fluorescence) (higher amounts of cycloheximide (more than 200 μM)): decrease in the lipid content
